Reference: paper PMC5441137, “Positively Selected Sites at HCMV gB Furin Processing Region and Their Effects in Cleavage Efficiency” (Frontiers in Microbiology, 2017)

What was measured:
recombinant human furin [1] = target: T1, recombinant human furin (Homo sapiens, UniProt P09958); assay: FRET peptide enzymatic kinetics assay of cleavage by furin; type: biochemical; conditions: for Km / kcat: FRET peptide as furin substrate, 10 mM MES, 1 mM CaCl2, pH 7.0, 37°C, fluorescence λex 320 nm/λem 420 nm, non-linear Michaelis-Menten fit (Grafit)
T1 construct: made in house
Description: Recombinant human furin was expressed and purified as previously described ([Kacprzak et al., 2004]). The enzyme concentration was determined by active site titration using the inhibitor decanoyl-RVKR-CMK inhibitor in 10 mM MES buffer, 1 mM CaCl2, pH 7.0 and the substrate Abz-GIRRKRSVSHQ-EDDnp.
Seven synthetic peptides were obtained by solid-phase strategy, as previously described ([Izidoro et al., 2010]) using the Fmoc-procedure in an automated multiple solid-phase peptide synthesizer (PSSM 8 system, Shimadzu, Japan) ([Hirata et al., 1995]; [Korkmaz et al., 2008]). Peptides were prepared in dimethylformamide and stock concentrations measured spectrophotometrically at 365 nm (e = 17,300 M^-1.cm^-1). The quantum yields of the FRET peptides and the products of their hydrolysis were unchanged in all tested conditions.
The FRET peptides were assayed in 10 mM MES, 1 mM CaCl2, pH 7.0, using a F-2500 spectrofluorimeter (Hitachi, Tokyo, Japan), at 37°C ([Izidoro et al., 2010]), as previously described. Fluorescence changes were monitored continuously at λex = 320 nm and λem = 420 nm. The enzyme concentrations for initial rate determinations were chosen at a level intended to hydrolyze less than 5% of the amount of added substrate over the time course of data collection.
Three kinetic parameters from the Michaelis-Menten model were analyzed, representing enzyme-substrate (km), the catalysis constant (kcat) and the kcat/km ratio. The kinetic parameters km and kcat were calculated by non-linear regression using Grafit software (Erithacus Software, Horley, Surrey, UK). km, kcat, and standard errors (less than 10%) were calculated using Grafit software (v.5.0.13, Erithacus Software, Horley, Surrey, UK) with a non-linear least squares Michaelis-Menten fit associated with a matrix invertion fitting routine to refine kcat, km and allowing estimation of the errors. Standard deviations greater than 10% are due to low values obtained.

recombinant human furin [2] = target: T1, recombinant human furin; assay: Analysis of furin-processed FRET substrates by LC-MS / HPLC / Maldi-TOF; type: biochemical; conditions: FRET peptide 5 μM, spectrofluorimeter and Maldi-TOF after 2 h of incubation with furin
Source text: In order to see if the mutations have an influence in cleavage, peptides containing the original reference sequences and their derivative containing positive selected mutations, were synthesized and tested against recombinant human furin. All substrates were cleaved after the double basic residues RR or KR as analyzed by Liquid Chromatography mass spectrometry (LC-MS) (Supplementary Figures S1–S3). The kcat/km ratio relates to the catalytic efficiency, meaning how fast in […] the enzyme reacts with the substrate once it encounters it. As a control, a peptide which contains a mutation previously shown to interfere with furin cleavage ([Strive et al., 2002]) was tested and as expected no cleavage was observed (Table 2 and Supplementary Figure S3).
Supplementary file Image_1.TIF: FIGURE S1 HPLC of furin-processed FRET substrates. […] Substrate and products were followed by fluorescence (Abz, ex320 nm; em420 nm) quenching (Eddnp, uv = 365 nm) indicating single cleavage site for all tested sequences. (A) gB3_22. (B) gB_20. (C) gB3_26 (D) gB2_18. (E) gB2_13. (F) gB2_19. Click here for additional data file.
Supplementary file Image_2.TIF: FIGURE S2 Mass spectra of furin-processed substrates. […] (A) gB3_22 substrate and products (1549.3, 678.7, and 888.7 Da). (B) gB2_13 (1634.4, 706.7, and 945.7 Da). (C) gB_20 (1604.3, 706.7, and 915.6 Da). […]

[3] = versus genotype 3 reference peptide (gB3_22)

T1 sequence (P09958 108-794): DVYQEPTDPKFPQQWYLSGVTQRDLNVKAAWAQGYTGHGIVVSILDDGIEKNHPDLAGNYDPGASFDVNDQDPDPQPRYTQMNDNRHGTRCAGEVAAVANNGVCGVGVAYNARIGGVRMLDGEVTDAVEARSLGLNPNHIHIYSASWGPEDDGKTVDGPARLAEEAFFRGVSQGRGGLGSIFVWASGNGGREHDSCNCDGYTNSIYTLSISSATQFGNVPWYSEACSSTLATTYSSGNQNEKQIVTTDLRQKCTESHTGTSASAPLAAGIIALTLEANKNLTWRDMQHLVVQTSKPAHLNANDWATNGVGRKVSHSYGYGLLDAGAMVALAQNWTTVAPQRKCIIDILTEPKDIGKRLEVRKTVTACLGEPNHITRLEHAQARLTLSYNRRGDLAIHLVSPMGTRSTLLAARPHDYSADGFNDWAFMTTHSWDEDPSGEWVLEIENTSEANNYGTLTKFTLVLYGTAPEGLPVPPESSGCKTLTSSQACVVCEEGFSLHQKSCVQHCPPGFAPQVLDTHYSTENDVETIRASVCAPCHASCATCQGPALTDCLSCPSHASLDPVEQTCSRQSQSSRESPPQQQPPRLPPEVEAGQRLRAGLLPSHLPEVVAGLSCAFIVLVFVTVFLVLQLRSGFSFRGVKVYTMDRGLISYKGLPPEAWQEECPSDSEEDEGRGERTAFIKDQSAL

Substance | Km (recombinant human furin [1]) [µM] | kcat (recombinant human furin [1]) [s⁻¹] | decrease in kcat/km ratio compared to the reference sequence (recombinant human furin [1]; [3]) | increase in the km compared to the reference sequence (recombinant human furin [1]; [3]) [times] | increase of the kcat/km ratio compared to the reference sequence (recombinant human furin [1]; versus genotype 2 reference sequence (gB2_13)) [fold] | processing by furin (cleavage observed or not) (recombinant human furin [2])
RTRR↓SASDNNT [gB2_20, FRET peptide of gB genotype 2 with the positively selected mutation T462A] | 0.69 | 4.06 | – | – | – | –
RTKR↓DTGNTTT [gB3_26, FRET peptide of gB genotype 3 with the positively selected mutation S461D] | 0.43 | 1.89 | threefold | 20 | – | –
RTRR↓SRSDNNT [gB2_19, FRET peptide of gB genotype 2 with the positively selected mutation T462R] | 0.23 | 5.06 | – | – | 31 | –
RTRR↓STSDNNT [gB2_13] | 3.19 | 2.24 | – | – | – | –
RTKR↓STGNTTT [gB3_22] | 0.02 | 0.25 | – | – | – | –
RTRR↓SMSDNNT [gB2_18, FRET peptide of gB genotype 2 with the positively selected mutation T462M] | 1.65 | 3.01 | – | – | – | –
ATRASTSDNNT | – | – | – | – | – | not processed by furin
